In patent EP0422215B1, “ANTIBACTERIAL AND AN[…]” (THE ROCKEFELLER UNIVERSITY, priority 1989, dated 1990):

How the values were obtained:
Format in all cases: cell-based
[1] = system: E. coli D21; conditions: thin agarose plates, overnight incubation at 30°C
Procedure: (§1) The products of the invention were tested for activity against a variety of test organisms selected to represent a number of different types of pathogens some of them known to be particularly virulent by the inhibition zone assay of Hoffmann et al. (1981) Insect Biochem. 11 537-548. Thin agar or agarose plates (8.5 cm diameter) were prepared with 6 ml of rich medium containing 100 µg/ml of streptomycin and 2 x 10^5 viable cells of a test organism resistant to streptomycin. Wells of […] were punched in the plates and 3 µl of serially diluted samples were placed in the wells. The diameters of the zones of inhibition around the wells were measured after overnight incubation at 30° or 37°C. For each peptide the squares of the zone diameters were plotted against the logarithm of the concentration, and from the slopes and intercepts the lethal concentrations were calculated as described by Hultmark (1983) EMBO J. 2, 571-76 or Hultmark et al. (1982) Eur. J. Biochem. 127 207-217.
(§2) Novel peptides CA(1-8)M(1-18), CA(1-9)M(1-17), CB(1-13)M(1-13), CA(1-17)M(1-9), CA(1-18)M(1-8), M(1-13)CA(1-22) and M(1-13)CA(1-13) were prepared as described above (see Examples 1-6). These novel peptides and CA, CB, and M were tested for activity against a variety of organisms selected to represent a number of different types of pathogens, some of them known to be particularly virulent, by the inhibition zone assay of Hoffmann et al. (1981), Insect Biochem. 11 537-48. As in Examples 1-6, thin agarose plates were prepared with the respective organisms. The diameters of the zones of inhibition were measured after overnight incubation at 30°C. The lethal concentrations were determined as described above (see Examples 1-6; Hultmark et al. articles cited thereat).

[2] = system: P. aeruginosa OT97; conditions: thin agarose plates, overnight incubation at 30°C
Procedure: as §1, §2

[3] = system: S. aureus Cowan I; conditions: thin agarose plates, 30°C, * indicates flat concentration dependence
Procedure: as §1, §2

[4] = system: S. pyogenes; conditions: thin agarose plates, overnight incubation at 30°C
Procedure: as §1, §2

[5] = system: Plasmodium falciparum strain F32 (Tanzania); test: inhibition of reinvasion of human red cells by blood stream forms of the malaria parasite; conditions: result in words, read from Figure 1
Procedure: The blood stream forms of the malaria parasite Plasmodium falciparum, primarily late trophozoites and early schizonts, were assayed by recording the inhibition of the reinvasion of human red cells by the method of Wahlin, B., et al, (1984) Proc. Natl. Acad. Sci. USA 81, 7912-16. Quadruplicate microcultures of strain F32 (Tanzania) were incubated for 20 hrs at 37°C in a complete tissue culture medium, with or without different concentrations of the peptides to be assayed. After acridine orange staining, the percentage of newly infected red cells was scored in a fluorescence microscope. For each culture 40,000 red cells were analysed for parasitic infection. Duplicate assays were run for CA(1-13)M(1-13).

[6] = system: B. subtilis Bsll; conditions: overnight incubation at 30°C; for LETHAL CONCENTRATION Bsll + ME: B. subtilis, plates prepared with medium E; for LETHAL CONCENTRATION Bsll: Bsll = B. subtilis, thin agarose plates
Procedure: as §1, §2

[7] = system: Sheep Red Cells; test: lysis of sheep red blood cells (lysis assay or inhibition zone plate assay with SRC); conditions: SRC = Sheep Red Cells; ? indicates turbid zone (melittin gives clear zone)
Procedure: These values were obtained by either the lysis assay normally used for melittin or by an adaptation of the antibacterial inhibition zone assay of the above-cited Hultmark et al. articles to plates with sheep red cells (SRC). With respect to the latter, sterile agarose plates contained 6 ml of medium with 1% agarose, 0.9% NaCl and 10% SRC suspended in Alsevers solution. A dilution series of peptide was applied in 3mm wells each loaded with 3 µl of the respective samples. The plates were incubated at 30°C for 24 h, the zones were recorded and LC values calculated as described in the Hultmark et al. articles. Clear zones were recorded after a few hours of incubation and the use of such data gave an LC value of the same order as readings after 24 h. This plate assay is faster and more convenient than the lysis assay normally used for melittin.

Compound | LETHAL CONCENTRATION D21 [1] [µM] | LETHAL CONCENTRATION OT97 [2] [µM] | LETHAL CONCENTRATION Staph [3] | LETHAL CONCENTRATION Strep [4] [µM] | activity against Plasmodium falciparum (inhibition of reinvasion, Figure 1) [5] | LETHAL CONCENTRATION Bsll + ME [6] [µM] | LETHAL CONCENTRATION Bsll [6] [µM] | LETHAL CONCENTRATION SRC [7]
H-KWKVFKKIEKMGRNIRNGIVKAGPAIAVLGEAKAL-NH2 [CB(1-35), reference compound] | 0.3 | 1 | >200 µM | 12 | about as potent as Mag | – | – | –
H-KWKLFKKIEKVGQNIRDGIIKAGPAVAVVGQATQIAK-NH2 [CA(1-37), reference compound] | 0.2 | 2 | >200 µM | 4 | only negligible activity | 200 | 4 | >200 µM
CC[C@H](C)[C@H](NC(=O)CN)C(=O)NCC(=O)N[C@@H](C)C(=O)N[C@H](C(=O)N[C@@H](CC(C)C)C(=O)N[C@@H](CCCCN)C(=O)N[C@H](C(=O)N[C@@H](CC(C)C)C(=O)N[C@H](C(=O)N[C@H](C(=O)NCC(=O)N[C@@H](CC(C)C)C(=O)N1CCC[C@H]1C(=O)N[C@@H](C)C(=O)N[C@@H](CC(C)C)C(=O)N[C@H](C(=O)N[C@@H](CO)C(=O)N[C@@H](Cc1c[nH]c2ccccc12)C(=O)N[C@H](C(=O)N[C@@H](CCCCN)C(=O)N[C@@H](CCCNC(=N)N)C(=O)N[C@@H](CCCCN)C(=O)N[C@@H](CCCNC(=N)N)C(=O)N[C@@H](CCC(N)=O)C(=O)N[C@@H](CCC(N)=O)C(N)=O)[C@@H](C)CC)[C@@H](C)CC)[C@@H](C)O)[C@@H](C)O)C(C)C)C(C)C [M(1-26), reference compound] | 0.8 | 3 | 0.2 µM | 0.5 | – | 0.3 | 0.2 | 4 to 8 µM
CC[C@H](C)[C@H](NC(=O)[C@H](CC(C)C)NC(=O)[C@H](C)NC(=O)[C@@H]1CCCN1C(=O)[C@H](CC(C)C)NC(=O)CNC(=O)[C@@H](NC(=O)[C@@H](NC(=O)[C@H](CC(C)C)NC(=O)[C@@H](NC(=O)[C@H](CCCCN)NC(=O)[C@H](CC(C)C)NC(=O)[C@@H](NC(=O)[C@H](C)NC(=O)CNC(=O)[C@@H](NC(=O)CNC(=O)[C@H](CCC(=O)O)NC(=O)[C@@H](NC(=O)[C@H](CCCCN)NC(=O)[C@H](CCCCN)NC(=O)[C@H](Cc1ccccc1)NC(=O)[C@H](CC(C)C)NC(=O)[C@H](CCCCN)NC(=O)[C@H](Cc1c[nH]c2ccccc12)NC(=O)[C@@H](N)CCCCN)[C@@H](C)CC)[C@@H](C)CC)C(C)C)C(C)C)[C@@H](C)O)[C@@H](C)O)C(N)=O [CA(1-9)M(1-17)] | 0.3 | 1 | 6 µM | 0.3 | – | 0.9 | 0.7 | >600 µM
CC[C@H](C)[C@H](NC(=O)CN)C(=O)NCC(=O)N[C@@H](C)C(=O)N[C@H](C(=O)N[C@@H](CC(C)C)C(=O)N[C@@H](CCCCN)C(=O)N[C@H](C(=O)N[C@@H](CC(C)C)C(=O)N[C@H](C(=O)N[C@H](C(=O)NCC(=O)N[C@@H](CC(C)C)C(=O)N[C@@H](CCCCN)C(=O)N[C@@H](Cc1c[nH]c2ccccc12)C(=O)N[C@@H](CCCCN)C(=O)N[C@@H](CC(C)C)C(=O)N[C@@H](Cc1ccccc1)C(=O)N[C@@H](CCCCN)C(=O)N[C@@H](CCCCN)C(=O)N[C@H](C(=O)N[C@@H](CCC(=O)O)C(=O)N[C@@H](CCCCN)C(=O)N[C@H](C(=O)NCC(=O)N[C@@H](CCC(N)=O)C(N)=O)C(C)C)[C@@H](C)CC)[C@@H](C)O)[C@@H](C)O)C(C)C)C(C)C [M(1-13)CA(1-13)] | 1 | 5 | 5* µM | 1 | – | 0.1 | 0.3 | 80? µM
